Assay results published in patent publication US20170121315A1, “HETEROBICYCLICALLY SUBSTITUTED 4-OXOBUTANE ACID DERIVATIVES AND USE THEREOF” (priority 2014, published 2017).

Target: T1, human macrophage elastase (HME/hMMP-12) (Homo sapiens, UniProt P39900)
T1 construct: purchased R&D Systems 917-MP
Test: In vitro HME inhibition test (standard or high-sensitivity)
Assay type: biochemical
Conditions: in some cases mean values, rounded to two significant figures
Outline: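 Autoactivated HME (0.5 nM; high-sensitivity format 0.05 nM, ~16 h) with 5 μM quenched Mca-PLGLEEA-Dap(Dnp)-NH2 substrate in HEPES pH 7.4, NaCl, CaCl2, ZnCl2, EDTA, Brij buffer, 2 h at 37° C. Fluorescence at ex 323/em 393 nm; IC50 from signal versus concentration.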

T1 sequence (P39900 106-470): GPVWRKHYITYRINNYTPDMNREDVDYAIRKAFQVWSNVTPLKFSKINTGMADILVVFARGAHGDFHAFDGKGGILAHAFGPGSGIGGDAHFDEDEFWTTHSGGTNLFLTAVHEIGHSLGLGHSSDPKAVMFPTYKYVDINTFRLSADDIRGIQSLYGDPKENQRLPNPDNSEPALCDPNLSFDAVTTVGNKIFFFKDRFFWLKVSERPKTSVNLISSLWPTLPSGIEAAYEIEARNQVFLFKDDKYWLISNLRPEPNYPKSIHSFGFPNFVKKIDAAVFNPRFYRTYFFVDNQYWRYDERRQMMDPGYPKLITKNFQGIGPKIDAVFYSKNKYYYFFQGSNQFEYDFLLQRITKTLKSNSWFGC

IC50 [nM] | Compound
350 | NC(=O)c1cccc(COc2ccc3oc(C(=O)CC(CCn4nnc5ccccc5c4=O)C(=O)O)cc3c2)c1 (single isomer, unassigned; (-)) [Example 33, (−)-4-{5-[(3-Carbamoylbenzyl)oxy]-1-benzofur-2-yl}-4-oxo-2-[2-(4-oxo-1,2,3-benzotriazin-3(4H)-yl)ethyl]butanoic acid]
1400 | CCCCCOc1ccc2cc(C(=O)CC(CCn3nnc4ccccc4c3=O)C(=O)O)oc2c1 (single isomer, unassigned; (-)) [Example 56, (−)-4-Oxo-2-[2-(4-oxo-1,2,3-benzotriazin-3(4H)-yl)ethyl]-4-[6-(pentyloxy)-1-benzofur-2-yl]butanoic acid]
340 | CCCCCCOc1ccc2cc(C(=O)CC(CCn3nnc4ccccc4c3=O)C(=O)O)oc2c1 (single isomer, unassigned; (-)) [Example 65, (−)-4-[6-(Hexyloxy)-1-benzofur-2-yl]-4-oxo-2-[2-(4-oxo-1,2,3-benzotriazin-3(4H)-yl)ethyl]butanoic acid]
890 | CCCCCCCOc1ccc2cc(C(=O)CC(CCn3nnc4ccccc4c3=O)C(=O)O)oc2c1 (single isomer, unassigned; (-)) [Example 68, (−)-4-[6-(Heptyloxy)-1-benzofur-2-yl]-4-oxo-2-[2-(4-oxo-1,2,3-benzotriazin-3(4H)-yl)ethyl]butanoic acid]
1900 | O=C(CC(CCn1nnc2ccccc2c1=O)C(=O)O)c1coc2cc(OCC3CCCC3)ccc12 (single isomer, unassigned; (-)) [Example 79, (−)-4-[6-(Cyclopentylmethoxy)-1-benzofur-3-yl]-4-oxo-2-[2-(4-oxo-1,2,3-benzotriazin-3(4H)-yl)ethyl]butanoic acid]
1.4 | O=C(CC(CCn1nnc2ccccc2c1=O)C(=O)O)c1coc2cc(OCC3CCCCC3)ccc12 (single isomer, unassigned; (-)) [Example 83, (−)-4-[6-(Cyclohexylmethoxy)-1-benzofur-3-yl]-4-oxo-2-[2-(4-oxo-1,2,3-benzotriazin-3(4H)-yl)ethyl]butanoic acid]
470 | CCCOc1ccc2c(C(=O)CC(CCn3nnc4ccccc4c3=O)C(=O)O)coc2c1 (single isomer, unassigned; (-)) [Example 87, (−)-4-Oxo-2-[2-(4-oxo-1,2,3-benzotriazin-3(4H)-yl)ethyl]-4-(6-propoxy-1-benzofur-3-yl)butanoic acid]
25 | O=C(CC(CCn1nnc2ccccc2c1=O)C(=O)O)c1coc2cc(OCC3CCOCC3)ccc12 (single isomer, unassigned; (-)) [Example 97, (−)-4-Oxo-2-[2-(4-oxo-1,2,3-benzotriazin-3(4H)-yl)ethyl]-4-[6-(tetrahydro-2H-pyran-4-ylmethoxy)-1-benzofur-3-yl]butanoic acid]
100 | CCCCCCOc1ccc2c(C(=O)CC(CCn3nnc4ccccc4c3=O)C(=O)O)coc2c1 (single isomer, unassigned; (-)) [Example 99, (−)-4-[6-(Hexyloxy)-1-benzofur-3-yl]-4-oxo-2-[2-(4-oxo-1,2,3-benzotriazin-3(4H)-yl)ethyl]butanoic acid]
4300 | O=C(CC(CCn1nnc2ccccc2c1=O)C(=O)O)c1cc2ccc(OCC3CC3)cc2s1 (single isomer, unassigned; (-)) [Example 113, (−)-4-[6-(Cyclopropylmethoxy)-1-benzothiophen-2-yl]-4-oxo-2-[2-(4-oxo-1,2,3-benzotriazin-3(4H)-yl)ethyl]butanoic acid]
13 | O=C(CC(CCn1nnc2ccc(C(F)(F)F)cc2c1=O)C(=O)O)c1cc2ccc(OCC3CC3)cc2s1 (single isomer, unassigned; enantiomer 1) [Example 129, 4-[6-(Cyclopropylmethoxy)-1-benzothiophen-2-yl]-4-oxo-2-{2-[4-oxo-6-(trifluoromethyl)-1,2,3-benzotriazin-3(4H)-yl]ethyl}butanoic acid (enantiomer 1)]
35 | O=C(CC(CCn1nnc2ccccc2c1=O)C(=O)O)c1noc2cc(OCc3ccc(F)cc3)ccc12 (single isomer, unassigned; enantiomer 1) [Example 137, 4-{6-[(4-Fluorobenzyl)oxy]-1,2-benzoxazol-3-yl}-4-oxo-2-[2-(4-oxo-1,2,3-benzotriazin-3(4H)-yl)ethyl]butanoic acid (enantiomer 1)]
15 | O=C(CC(CCn1nnc2ccccc2c1=O)C(=O)O)c1noc2cc(OCCC3CCCCC3)ccc12 (single isomer, unassigned; enantiomer 1) [Example 142, (−)-4-[6-(2-Cyclohexylethoxy)-1,2-benzoxazol-3-yl]-4-oxo-2-[2-(4-oxo-1,2,3-benzotriazin-3(4H)-yl)ethyl]butanoic acid (enantiomer 1)]
260 | O=C(O)[C@@H]1[C@@H](Cn2nnc3ccc(C(F)(F)F)cc3c2=O)CC[C@H]1C(=O)c1cc2cc(OCCc3ccccc3)ccc2o1 (single isomer, unassigned; enantiomer 1) [Example 158, (−)-(1RS,2SR,5RS)-2-{[4-Oxo-6-(trifluoromethyl)-1,2,3-benzotriazin-3(4H)-yl]methyl}-5-{[5-(2-phenylethoxy)-1-benzofur-2-yl]carbonyl}cyclopentanecarboxylic acid (enantiomer 1)]
0.33 | O=C(CC(CCn1nnc2ccccc2c1=O)C(=O)O)c1noc2cc(OCc3ccc(F)cc3)ccc12 (single isomer, unassigned; enantiomer 2) [Example 138, 4-{6-[(4-Fluorobenzyl)oxy]-1,2-benzoxazol-3-yl}-4-oxo-2-[2-(4-oxo-1,2,3-benzotriazin-3(4H)-yl)ethyl]butanoic acid (enantiomer 2)]

Second part, the molecule before the results:

Compound | IC50 [nM]
O=C(CC(CCn1nnc2ccccc2c1=O)C(=O)O)c1cc2cc(OCc3ccc(F)cc3)ccc2o1 (single isomer, unassigned; (-)) [Example 24, (−)-4-{5-[(4-Fluorobenzyl)oxy]-1-benzofur-2-yl}-4-oxo-2-[2-(4-oxo-1,2,3-benzotriazin-3(4H)-yl)ethyl]butanoic acid] | 210
O=C(CC(CCn1nnc2ccccc2c1=O)C(=O)O)c1cc2cc(OCc3ccc(Cl)c(Cl)c3)ccc2o1 (single isomer, unassigned; (-)) [Example 26, (−)-4-{5-[(3,4-Dichlorobenzyl)oxy]-1-benzofur-2-yl}-4-oxo-2-[2-(4-oxo-1,2,3-benzotriazin-3(4H)-yl)ethyl]butanoic acid] | 160
O=C(CC(CCn1nnc2ccccc2c1=O)C(=O)O)c1cc2cc(OCc3ccccc3)ccc2o1 (single isomer, unassigned; (-)) [Example 29, (−)-4-[5-(Benzyloxy)-1-benzofur-2-yl]-4-oxo-2-[2-(4-oxo-1,2,3-benzotriazin-3(4H)-yl)ethyl]butanoic acid] | 770
CCCCOc1ccc2cc(C(=O)CC(CCn3nnc4ccccc4c3=O)C(=O)O)oc2c1 (single isomer, unassigned; (-)) [Example 62, (−)-4-(6-Butoxy-1-benzofur-2-yl)-4-oxo-2-[2-(4-oxo-1,2,3-benzotriazin-3(4H)-yl)ethyl]butanoic acid] | 570
CCCCCCCOc1ccc2c(C(=O)CC(CCn3nnc4ccccc4c3=O)C(=O)O)coc2c1 (single isomer, unassigned; (-)) [Example 102, (−)-4-[6-(Heptyloxy)-1-benzofur-3-yl]-4-oxo-2-[2-(4-oxo-1,2,3-benzotriazin-3(4H)-yl)ethyl]butanoic acid] | 2100
CC(C)COc1ccc2c(C(=O)CC(CCn3nnc4ccccc4c3=O)C(=O)O)coc2c1 (single isomer, unassigned; (-)) [Example 106, (−)-4-(6-Isobutoxy-1-benzofur-3-yl)-4-oxo-2-[2-(4-oxo-1,2,3-benzotriazin-3(4H)-yl)ethyl]butanoic acid] | 31
CCCCOc1ccc2c(C(=O)CC(CCn3nnc4ccccc4c3=O)C(=O)O)coc2c1 (single isomer, unassigned; (-)) [Example 109, (−)-4-(6-Butoxy-1-benzofur-3-yl)-4-oxo-2-[2-(4-oxo-1,2,3-benzotriazin-3(4H)-yl)ethyl]butanoic acid] | 10
O=C(CC(CCn1nnc2ccccc2c1=O)C(=O)O)c1cc2cc(OCC3CCCCC3)ccc2o1 (single isomer, unassigned; enantiomer 1) [Example 9, (−)-4-[5-(Cyclohexylmethoxy)-1-benzofur-2-yl]-4-oxo-2-[2-(4-oxo-1,2,3-benzotriazin-3(4H)-yl)ethyl]butanoic acid (enantiomer 1)] | 370
O=C(CC(CCn1nnc2ccccc2c1=O)C(=O)O)c1cc2cc(OCCCC(F)(F)F)ccc2o1 (single isomer, unassigned; enantiomer 1) [Example 12, (−)-4-Oxo-2-[2-(4-oxo-1,2,3-benzotriazin-3(4H)-yl)ethyl]-4-[5-(4,4,4-trifluorobutoxy)-1-benzofur-2-yl]butanoic acid (enantiomer 1)] | 900
O=C(CC(CCn1nnc2ccccc2c1=O)C(=O)O)c1cc2cc(OCC3CCCC3)ccc2o1 (single isomer, unassigned; enantiomer 1) [Example 17, (−)-4-[5-(Cyclopentylmethoxy)-1-benzofur-2-yl]-4-oxo-2-[2-(4-oxo-1,2,3-benzotriazin-3(4H)-yl)ethyl]butanoic acid (enantiomer 1)] | 94
O=C(CC(CCn1nnc2ccccc2c1=O)C(=O)O)c1cc2cc(OCC3CCCCC3)ccc2o1 (single isomer, unassigned; enantiomer 2) [Example 10, (+)-4-[5-(Cyclohexylmethoxy)-1-benzofur-2-yl]-4-oxo-2-[2-(4-oxo-1,2,3-benzotriazin-3(4H)-yl)ethyl]butanoic acid (enantiomer 2)] | 0.62
O=C(CC(CCn1nnc2ccccc2c1=O)C(=O)O)c1cc2cc(OCC3CCCC3)ccc2o1 (single isomer, unassigned; enantiomer 2) [Example 18, (+)-4-[5-(Cyclopentylmethoxy)-1-benzofur-2-yl]-4-oxo-2-[2-(4-oxo-1,2,3-benzotriazin-3(4H)-yl)ethyl]butanoic acid (enantiomer 2)] | 6
